Data published in ChEMBL document CHEMBL2331198, “Identification of small-molecule inhibitors of the human S100B-p53 interaction and evaluation of their activity in human melanoma cells” (Bioorg Med Chem, 2013).
Calls of active or inactive are those of the source. The calls are words filed in the database; no cut-off is given here.

Assays:
[1] = target: T1, Protein S100-B (Homo sapiens) (UniProt P04271); experiment: Inhibition of human S100B/humanTAMRA-p53(367-388) interaction by In situ proximity ligation assay
T1 sequence (whole entry): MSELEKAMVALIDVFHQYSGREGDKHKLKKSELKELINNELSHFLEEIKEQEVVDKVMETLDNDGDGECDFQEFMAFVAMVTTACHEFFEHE

WM-115 = experiment: Cytotoxicity against human WM115 cells assessed as growth inhibition measured after 72 hrs by crystal violet assay; format: functional, cell-based; settings: WM-115, 72 h
Protein S100-B = target: T2, Protein S100-B (Homo sapiens, UniProt P04271); experiment: Inhibition of human S100B/human TAMRA-p53(367-388) interaction by fluorescence polarization assay
T2 sequence (P04271 whole entry): T1 sequence (whole entry)

[2] = target: T1, Protein S100-B (Homo sapiens); experiment: Inhibition of human S100B/humanTAMRA-p53(367-388) interaction assessed as inhibition rate at 50 uM by fluorescence polarization assay
[3] = target: T1, Protein S100-B (Homo sapiens); experiment: Inhibition of human S100B/humanTAMRA-p53(367-388) interaction assessed as inhibition rate at 93 uM by fluorescence polarization assay

| SMILES | inhibition [1] | IC50 (WM-115) [µM] | IC50 (Protein S100-B) [µM] | Ki (Protein S100-B) [µM] | inhibition [2] [%] | inhibition [3] [%] |
| --- | --- | --- | --- | --- | --- | --- |
| Nc1ccc(N2CCCCC2)cc1N1CCCCC1 | Active | 4.9 | 2 | < 1 | – | – |
| CCN(CC)c1ccc(N)c(C)c1 | – | 8.5 | 8.4 | 5 | – | – |
| Nc1ccc(N2CCNCC2)cc1 | – | – | – | – | < 50 | – |
| N=C(N)c1ccc(OCCCCCOc2ccc(C(=N)N)cc2)cc1 [PENTAMIDINE] | – | 4.8 | > 100 | – | – | 14.2 |
| CN1CCN(c2ccc(N)c(N3CCN(C)CC3)c2)CC1 | – | – | – | – | < 50 | – |
| COc1ccc(/C=N/c2ccc(O)cc2)cc1 | – | – | 36.3 | – | – | – |
| Nc1cc(N2CCCCC2)ccc1N1CCCCC1 | – | 36.4 | 31.5 | 25.1 | – | – |
